Here are results for four compounds from PMC8865417, “Receptor Interaction Profiles of 4-Alkoxy-3,5-Dimethoxy-Phenethylamines (Mescaline Derivatives) and Related Amphetamines” (Frontiers in Pharmacology, 2022).

The target of one assay is T1, h5-HT1A receptor (Homo sapiens, UniProt P08908).
T1 construct: expressed in transfected cells; host or cells: HEK 293 cells (membrane preparations)
T1 sequence (P08908 1-422): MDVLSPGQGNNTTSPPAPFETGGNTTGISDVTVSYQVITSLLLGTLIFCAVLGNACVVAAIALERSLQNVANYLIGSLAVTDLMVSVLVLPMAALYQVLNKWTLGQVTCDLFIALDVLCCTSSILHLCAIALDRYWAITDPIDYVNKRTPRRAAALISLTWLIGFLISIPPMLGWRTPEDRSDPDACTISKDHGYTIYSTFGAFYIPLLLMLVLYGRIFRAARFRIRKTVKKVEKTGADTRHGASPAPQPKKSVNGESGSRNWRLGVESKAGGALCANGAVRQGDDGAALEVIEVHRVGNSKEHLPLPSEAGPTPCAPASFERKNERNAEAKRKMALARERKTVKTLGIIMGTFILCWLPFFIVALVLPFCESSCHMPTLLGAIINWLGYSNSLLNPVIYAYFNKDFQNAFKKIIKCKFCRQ
Nature of the assay: Radioligand binding at h5-HT1A receptor ([3H]8-OH-DPAT).

The target of assay [1] is T2, h5-HT2A receptor (Homo sapiens, UniProt P28223).
T2 construct: expressed in transfected cells; host or cells: HEK 293 cells (membrane preparations)
T2 sequence (P28223 whole entry): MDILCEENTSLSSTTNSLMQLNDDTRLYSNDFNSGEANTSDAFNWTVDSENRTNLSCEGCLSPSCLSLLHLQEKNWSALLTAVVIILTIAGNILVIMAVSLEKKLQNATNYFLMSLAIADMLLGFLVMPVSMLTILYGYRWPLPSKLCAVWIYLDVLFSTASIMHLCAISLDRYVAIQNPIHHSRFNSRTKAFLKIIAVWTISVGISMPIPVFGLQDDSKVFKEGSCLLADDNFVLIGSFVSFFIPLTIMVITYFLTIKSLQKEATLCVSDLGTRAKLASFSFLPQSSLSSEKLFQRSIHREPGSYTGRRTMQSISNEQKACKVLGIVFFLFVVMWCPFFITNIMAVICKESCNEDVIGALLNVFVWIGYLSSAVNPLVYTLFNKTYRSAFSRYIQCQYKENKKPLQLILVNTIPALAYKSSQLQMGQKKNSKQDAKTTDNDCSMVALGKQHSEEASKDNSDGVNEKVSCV
As to the kind of experiment: Radioligand binding at h5-HT2A receptor ([3H]ketanserin). To be noted: for Ki: h5-HT2A Receptor binding Ki ± SD, [3H]ketanserin, mean ± SD.

The target of a further assay is T3, human TAAR1 (Homo sapiens, UniProt Q96RJ0).
T3 construct: expressed in transfected cells; host or cells: HEK 293 cells
T3 sequence (Q96RJ0 1-339): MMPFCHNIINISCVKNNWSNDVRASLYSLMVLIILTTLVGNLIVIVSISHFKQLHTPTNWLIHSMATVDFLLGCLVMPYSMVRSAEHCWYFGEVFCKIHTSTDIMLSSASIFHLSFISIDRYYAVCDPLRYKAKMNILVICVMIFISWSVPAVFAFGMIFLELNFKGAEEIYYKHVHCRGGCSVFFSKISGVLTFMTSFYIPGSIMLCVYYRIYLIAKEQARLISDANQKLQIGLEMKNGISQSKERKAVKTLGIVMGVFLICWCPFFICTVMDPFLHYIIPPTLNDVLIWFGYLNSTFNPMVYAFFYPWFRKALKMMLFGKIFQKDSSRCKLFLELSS
As to the kind of experiment: Activity at the human TAAR1 (cAMP assay, HEK 293 cells). Format: cell-based. As to the method: Once 80–90% confluency was reached, the cells were collected by removing the medium, washing with PBS and then adding 5 ml of trypsin/EDTA solution for 5 min at 37°C. Next, 45 ml of medium was added and the entire mixture was transferred into a falcon tube. The tube was then centrifuged at room temperature for 3 min at 900 revolutions per minute (rpm). Next, the supernatant was removed in order to resuspend the remaining cell pellet in fresh medium to 5 × 10^5 cells/ml. Hundred microliter of the cells was transferred into a 96-well plate ([…]; BIOCOAT 6640, Becton Dickinson, Allschwil, Switzerland) and incubated for 20 h at 37°C.
For the cAMP assay, the aspirated medium was replaced with 50 μl PBS without Ca^2+ and Mg^2+ ions. Using snap inversion, the PBS was extracted and the plate was gently tapped against tissue. Next, 90 μl of Krebs-Ringer Bicarbonate buffer (KRB, Sigma-Aldrich) containing 1 mM IBMX was added and incubated for 60 min at 37°C and 5% CO2/95% air. Each test compound was examined in duplicate in a concentration range between 300 pM and 30 μM. A standard curve with a range of cAMP concentrations (0.13 nM–10 μM) was created for each 96-well plate. Each experiment was accompanied with a reference plate that included RO5256390, β-phenylethylamine and p-tyramine. The cells were exposed to either 30 μl of compound solution, 30 μl of β-phenylethylamine (as maximal response), or a basal control in PBS (containing 1 mM IBMX) for 40 min at 37°C. Next, under forceful shaking using black lids, the cells were exposed to 50 μl of 3× detection mix solution (composed of Ru-cAMP Alexa700 anti-cAMP antibody and lysis buffer) for 120 min at room temperature. Using the NanoScan reader (Innovate Optische Messtechnik, Berlin, Germany; 456 nm excitation wavelength; 630 and 700 nm emission wavelengths), the fluorescence was examined and the FRET signal was determined using the following equation; FRET (700 nm)- P × FRET (630 nm), where P = Ru (700 nm)/Ru (630 nm).

For another assay, the target named is T4, rat TAAR1 (Rattus norvegicus, UniProt Q923Y9).
T4 construct: expressed in transfected cells; host or cells: HEK 293 cells (membrane preparations)
T4 sequence (Q923Y9 whole entry): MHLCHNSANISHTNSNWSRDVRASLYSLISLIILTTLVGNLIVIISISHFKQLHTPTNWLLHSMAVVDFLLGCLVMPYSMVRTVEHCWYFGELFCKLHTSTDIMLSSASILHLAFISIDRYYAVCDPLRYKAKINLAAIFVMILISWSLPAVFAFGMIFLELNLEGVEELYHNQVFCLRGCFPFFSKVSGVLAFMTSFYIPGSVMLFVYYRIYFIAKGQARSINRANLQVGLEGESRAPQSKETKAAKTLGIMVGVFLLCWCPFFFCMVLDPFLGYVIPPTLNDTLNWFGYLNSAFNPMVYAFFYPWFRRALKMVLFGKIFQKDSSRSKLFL
As to the kind of experiment: Radioligand binding at rat TAAR1 ([3H]RO5166017).

Another assay deals with T5, mouse TAAR1 (Mus musculus, UniProt Q923Y8).
T5 construct: expressed in transfected cells; host or cells: HEK 293 cells (membrane preparations)
T5 sequence (Q923Y8 whole entry): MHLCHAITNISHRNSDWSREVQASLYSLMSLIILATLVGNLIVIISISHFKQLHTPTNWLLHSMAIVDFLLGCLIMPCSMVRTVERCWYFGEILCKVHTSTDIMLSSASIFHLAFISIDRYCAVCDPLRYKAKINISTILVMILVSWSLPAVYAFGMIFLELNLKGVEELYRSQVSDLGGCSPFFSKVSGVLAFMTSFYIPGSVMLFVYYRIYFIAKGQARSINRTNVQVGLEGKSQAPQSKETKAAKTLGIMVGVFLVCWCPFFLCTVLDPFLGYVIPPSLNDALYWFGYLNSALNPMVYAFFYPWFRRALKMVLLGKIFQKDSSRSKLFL
As to the kind of experiment: Radioligand binding at mouse TAAR1 ([3H]RO5166017).

The next assay concerns the target T6, hα1A adrenergic receptor (Homo sapiens, UniProt P35348).
T6 construct: expressed in transfected cells; host or cells: Chinese hamster ovary cells (membrane preparations)
T6 sequence (P35348 1-466): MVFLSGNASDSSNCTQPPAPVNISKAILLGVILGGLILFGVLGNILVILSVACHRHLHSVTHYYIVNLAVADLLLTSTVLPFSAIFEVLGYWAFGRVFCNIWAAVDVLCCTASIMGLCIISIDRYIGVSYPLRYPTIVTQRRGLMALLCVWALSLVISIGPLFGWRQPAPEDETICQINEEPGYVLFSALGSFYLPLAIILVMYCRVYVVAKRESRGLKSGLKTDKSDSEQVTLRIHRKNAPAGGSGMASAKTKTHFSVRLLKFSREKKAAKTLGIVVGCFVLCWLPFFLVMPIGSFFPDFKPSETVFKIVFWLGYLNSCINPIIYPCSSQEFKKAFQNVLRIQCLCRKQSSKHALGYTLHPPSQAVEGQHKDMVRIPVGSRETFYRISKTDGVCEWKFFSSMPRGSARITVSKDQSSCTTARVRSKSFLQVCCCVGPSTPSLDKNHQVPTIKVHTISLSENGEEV
Nature of the assay: Radioligand binding at hα1A adrenergic receptor ([3H]prazosin). To be noted: mean ± SD.

The target of another assay is T7, hα2A adrenergic receptor (Homo sapiens, UniProt P08913).
T7 construct: expressed in transfected cells; host or cells: Chinese hamster lung cells (membrane preparations)
T7 sequence (P08913 1-465): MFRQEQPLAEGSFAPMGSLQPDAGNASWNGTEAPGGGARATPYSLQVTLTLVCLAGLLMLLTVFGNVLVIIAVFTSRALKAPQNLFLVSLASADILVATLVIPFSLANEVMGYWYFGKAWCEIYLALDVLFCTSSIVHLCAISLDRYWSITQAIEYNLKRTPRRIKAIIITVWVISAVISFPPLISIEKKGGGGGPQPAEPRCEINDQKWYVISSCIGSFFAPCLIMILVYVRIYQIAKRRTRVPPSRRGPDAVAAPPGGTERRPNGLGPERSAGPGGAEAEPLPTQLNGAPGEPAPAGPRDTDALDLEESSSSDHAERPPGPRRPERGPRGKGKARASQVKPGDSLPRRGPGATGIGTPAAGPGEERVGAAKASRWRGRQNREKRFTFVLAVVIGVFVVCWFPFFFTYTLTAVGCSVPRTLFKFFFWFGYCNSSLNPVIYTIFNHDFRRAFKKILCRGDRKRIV
As to the kind of experiment: Radioligand binding at hα2A adrenergic receptor ([3H]rauwolscine).

Assay [2] has as its target T8, dopaminergic hD2 receptor (Homo sapiens, UniProt P14416).
T8 construct: expressed in transfected cells; host or cells: HEK 293 cells (membrane preparations)
Nature of the assay: Radioligand binding at dopaminergic hD2 receptor ([3H]spiperone).

The target of a further assay is T9, hNET (Homo sapiens, UniProt P23975).
T9 construct: expressed in transfected cells; host or cells: HEK 293 cells (membrane preparations)
T9 sequence (P23975 whole entry): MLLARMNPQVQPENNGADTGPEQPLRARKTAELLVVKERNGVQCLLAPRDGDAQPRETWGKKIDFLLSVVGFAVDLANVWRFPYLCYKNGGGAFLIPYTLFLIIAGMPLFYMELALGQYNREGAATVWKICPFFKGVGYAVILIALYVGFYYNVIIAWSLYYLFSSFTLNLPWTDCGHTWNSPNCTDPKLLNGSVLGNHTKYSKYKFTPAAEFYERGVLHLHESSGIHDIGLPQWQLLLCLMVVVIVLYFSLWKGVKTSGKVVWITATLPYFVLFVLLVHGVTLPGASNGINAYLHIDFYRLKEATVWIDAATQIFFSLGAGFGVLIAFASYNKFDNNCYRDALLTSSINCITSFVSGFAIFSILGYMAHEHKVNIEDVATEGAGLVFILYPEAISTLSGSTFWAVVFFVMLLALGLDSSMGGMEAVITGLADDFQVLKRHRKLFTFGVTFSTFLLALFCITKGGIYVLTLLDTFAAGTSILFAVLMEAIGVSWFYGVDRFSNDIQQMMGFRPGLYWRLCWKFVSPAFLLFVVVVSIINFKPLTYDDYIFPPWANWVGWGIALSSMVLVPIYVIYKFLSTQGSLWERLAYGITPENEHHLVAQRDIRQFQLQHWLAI
As to the kind of experiment: Radioligand binding at hNET (N-methyl-[3H]nisoxetine).

Another assay has as its target T10, hDAT (Homo sapiens, UniProt Q01959).
T10 construct: expressed in transfected cells; host or cells: HEK 293 cells (membrane preparations)
As to the kind of experiment: Radioligand binding at hDAT ([3H]WIN35,428).

Another assay addresses T11, hSERT (Homo sapiens, UniProt P31645).
T11 construct: expressed in transfected cells; host or cells: HEK 293 cells (membrane preparations)
As to the kind of experiment: Radioligand binding at hSERT ([3H]citalopram).

Another assay deals with humans. To be noted: cited from earlier work.
For another assay, the target named is human 5-HT2A receptor (Homo sapiens, UniProt P28223). To be noted: for Emax: NIH3T3, read-out: h5-HT2A Activation efficacy max ± SD, relative to 5-HT = 100%.
human 5-HT2A receptor, sequence (P28223 whole entry): as the sequence (P28223 whole entry) above
The target in the next assay is human 5-HT2B receptor (Homo sapiens, UniProt P41595). To be noted: for EC50: h5-HT2B Activation potency EC50 ± SD, HEK 293 cells, calcium FLIPR, mean ± SD.
human 5-HT2B receptor, sequence (P41595 whole entry): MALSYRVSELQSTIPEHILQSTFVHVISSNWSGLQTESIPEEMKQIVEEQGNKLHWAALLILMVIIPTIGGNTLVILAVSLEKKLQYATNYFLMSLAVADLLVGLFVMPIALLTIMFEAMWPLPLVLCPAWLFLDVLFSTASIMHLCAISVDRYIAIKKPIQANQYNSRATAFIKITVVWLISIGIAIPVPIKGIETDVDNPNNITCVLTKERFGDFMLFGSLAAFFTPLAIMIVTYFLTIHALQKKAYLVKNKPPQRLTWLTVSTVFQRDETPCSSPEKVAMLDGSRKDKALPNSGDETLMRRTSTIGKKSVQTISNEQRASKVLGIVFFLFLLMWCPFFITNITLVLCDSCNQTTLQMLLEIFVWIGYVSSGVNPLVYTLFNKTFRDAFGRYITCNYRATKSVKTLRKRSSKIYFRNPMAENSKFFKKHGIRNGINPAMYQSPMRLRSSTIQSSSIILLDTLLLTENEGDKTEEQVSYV
Assay [3] deals with T2, h5-HT2A receptor. To be noted: read-out: h5-HT2A Receptor binding Ki ± SD; cited from earlier work.
In another assay the target is T12, h5-HT2C receptor (Homo sapiens, UniProt P28335).
T12 construct: expressed in transfected cells; host or cells: HEK 293 cells (membrane preparations)
T12 sequence (P28335 33-458): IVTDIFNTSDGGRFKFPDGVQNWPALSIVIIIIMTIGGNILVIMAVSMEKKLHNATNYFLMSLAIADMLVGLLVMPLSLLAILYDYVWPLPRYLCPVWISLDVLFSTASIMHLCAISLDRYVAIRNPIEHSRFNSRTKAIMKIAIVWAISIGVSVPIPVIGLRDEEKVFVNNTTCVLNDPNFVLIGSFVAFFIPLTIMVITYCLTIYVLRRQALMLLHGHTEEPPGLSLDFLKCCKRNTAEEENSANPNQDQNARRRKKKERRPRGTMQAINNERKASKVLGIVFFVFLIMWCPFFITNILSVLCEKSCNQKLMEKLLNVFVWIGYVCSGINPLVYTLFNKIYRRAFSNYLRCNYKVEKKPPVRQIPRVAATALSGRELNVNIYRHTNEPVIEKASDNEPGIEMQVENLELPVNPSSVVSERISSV
Nature of the assay: biochemical. Format: binding. To be noted: [3H]mesulergine; mean ± SD; read-out: h5-HT2C Receptor binding Ki ± SD.

The next assay deals with head twitch response. Further details: method as in Halberstadt et al. (2019). To be noted: ref Halberstadt et al. (2019); cited from earlier work.

Where two headings read alike, the source gives them in different places.

T8 sequence (P14416 whole entry): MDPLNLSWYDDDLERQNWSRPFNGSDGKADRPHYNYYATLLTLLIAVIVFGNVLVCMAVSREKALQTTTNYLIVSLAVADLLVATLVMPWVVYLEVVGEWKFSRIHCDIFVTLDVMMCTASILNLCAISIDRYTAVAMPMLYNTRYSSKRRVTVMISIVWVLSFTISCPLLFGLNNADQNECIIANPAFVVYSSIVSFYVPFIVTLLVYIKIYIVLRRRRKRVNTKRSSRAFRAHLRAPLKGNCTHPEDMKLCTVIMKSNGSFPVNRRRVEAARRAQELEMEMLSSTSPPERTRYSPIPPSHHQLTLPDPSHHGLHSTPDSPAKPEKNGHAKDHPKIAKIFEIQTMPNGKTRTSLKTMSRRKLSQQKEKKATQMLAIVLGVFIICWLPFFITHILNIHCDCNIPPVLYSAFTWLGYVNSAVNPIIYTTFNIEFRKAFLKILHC
T11 sequence (P31645 whole entry): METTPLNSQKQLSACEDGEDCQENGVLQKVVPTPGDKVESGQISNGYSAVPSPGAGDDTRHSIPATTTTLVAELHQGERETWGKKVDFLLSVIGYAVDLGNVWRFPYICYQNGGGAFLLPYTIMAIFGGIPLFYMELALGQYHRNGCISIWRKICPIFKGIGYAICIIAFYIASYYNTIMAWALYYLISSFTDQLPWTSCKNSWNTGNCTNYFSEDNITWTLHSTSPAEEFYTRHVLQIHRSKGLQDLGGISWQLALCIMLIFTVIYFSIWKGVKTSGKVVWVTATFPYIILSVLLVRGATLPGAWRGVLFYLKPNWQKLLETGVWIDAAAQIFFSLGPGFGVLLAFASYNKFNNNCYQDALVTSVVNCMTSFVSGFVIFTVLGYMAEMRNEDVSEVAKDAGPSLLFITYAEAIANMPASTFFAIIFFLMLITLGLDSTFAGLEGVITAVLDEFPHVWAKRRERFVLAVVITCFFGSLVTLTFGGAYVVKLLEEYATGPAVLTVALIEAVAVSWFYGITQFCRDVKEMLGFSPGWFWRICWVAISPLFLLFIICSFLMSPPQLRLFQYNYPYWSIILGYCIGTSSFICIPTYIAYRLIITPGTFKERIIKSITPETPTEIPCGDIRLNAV
T10 sequence (Q01959 whole entry): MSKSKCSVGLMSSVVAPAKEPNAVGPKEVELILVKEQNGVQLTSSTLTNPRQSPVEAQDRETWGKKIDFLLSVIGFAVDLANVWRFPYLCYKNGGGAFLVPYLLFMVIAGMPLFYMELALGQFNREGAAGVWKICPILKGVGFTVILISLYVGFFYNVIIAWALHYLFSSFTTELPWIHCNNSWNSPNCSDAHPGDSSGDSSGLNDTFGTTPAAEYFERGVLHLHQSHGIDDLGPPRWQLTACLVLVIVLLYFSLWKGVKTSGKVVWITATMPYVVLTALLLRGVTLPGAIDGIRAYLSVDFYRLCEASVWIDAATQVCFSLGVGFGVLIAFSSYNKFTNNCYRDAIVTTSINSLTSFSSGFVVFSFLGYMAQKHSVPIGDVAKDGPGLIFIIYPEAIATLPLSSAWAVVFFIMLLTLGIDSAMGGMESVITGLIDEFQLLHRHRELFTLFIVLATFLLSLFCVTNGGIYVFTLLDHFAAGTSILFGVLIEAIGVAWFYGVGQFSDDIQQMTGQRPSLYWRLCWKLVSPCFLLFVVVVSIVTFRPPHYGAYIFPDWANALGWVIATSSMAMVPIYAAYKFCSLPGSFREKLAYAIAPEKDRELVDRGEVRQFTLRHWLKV

In the case of `COc1cc(CC(C)N)cc(OC)c1OC` (stereo not shown) [compound 6, 3,4,5-trimethoxyamphetamine], the Ki on h5-HT1A receptor was more than 5.6 µM; at h5-HT2A receptor [1] it was more than 12 µM; at rat TAAR1 it was 3.2 µM; at mouse TAAR1, 1.8 µM; at hα1A adrenergic receptor it was more than 8.7 µM; at hα2A adrenergic receptor, 4.03 µM. Moreover, the Ki is more than 6.3 µM in assay [2], more than 9.7 µM on hNET, more than 8.5 µM on hDAT and more than 7.5 µM on hSERT. Moreover, the concentration for a half-maximal effect (EC50) is more than 10 µM at human TAAR1, 1.7 ± 0.4 µM on human 5-HT2A receptor and more than 10 µM at human 5-HT2B receptor. For the same compound, in the assay on humans (humans, ref Shulgin and Shulgin 1991, Shulgin and Shulgin 1997, Trachsel et al., 2013), the Duration of action is 6 to 8 h. Also, the Human oral dose with humans (psychedelic dose in humans, ref Shulgin and Shulgin 1991, Shulgin and Shulgin 1997, Trachsel et al., 2013, listed as TMA) is 100 to 250 mg. Besides, the “Psychedelic / active dose in humans” value in the assay with humans (ref Shulgin and Shulgin 1991) was 100 to 200 mg. Moreover, on human 5-HT2A receptor, the Emax was in the range of 40 to 73%.

Take `COc1cc(CCN)c(OC)cc1Br` [2C-B]: the Ki at h5-HT2A receptor [3] is 0.0069 ± 0.0018 µM.

As for `CCOc1c(OC)cc(CC(C)N)cc1OC` (stereo not shown) [compound 21, 3,5-dimethoxy-4-ethoxyamphetamine], the Ki at h5-HT1A receptor was more than 5.6 µM; at h5-HT2A receptor [1], 3.7 µM; at h5-HT2C receptor, 4.9 µM; on rat TAAR1 it was more than 4.7 µM; at mouse TAAR1 it was more than 4.2 µM; at hα1A adrenergic receptor, more than 8.7 µM. Also, the Ki is more than 5.1 µM on hα2A adrenergic receptor; more than 6.3 µM in assay [2]; more than 9.7 µM on hNET; more than 8.5 µM on hDAT; more than 7.5 µM at hSERT. For the same compound, at h5-HT2A receptor [1] (binding ratio), the “Selectivity 5-HT2A vs. 5-HT2C” value is 1.3. The Head twitch response entry in the assay with head twitch response is on record as “induced a head twitch response with almost identical potency”. The EC50 at human 5-HT2A receptor came to 0.16 ± 0.05 µM; on human 5-HT2B receptor, 0.095 ± 0.13 µM. Also, the Emax fell in the range of 86 to 102% at human 5-HT2A receptor and 18 to 29% at human 5-HT2B receptor (HEK293, read-out: h5-HT2B Activation efficacy max ± SD, relative to 5-HT = 100%).

For `COc1cc(CCN)cc(OC)c1OC(F)F` [compound 12, 4-difluoromethoxy-3,5-dimethoxyphenethylamine], the Ki is 2.5 µM at h5-HT1A receptor; 3.5 µM at h5-HT2A receptor [1]; 2.8 µM at h5-HT2C receptor; 0.88 ± 0.18 µM on rat TAAR1; more than 4.2 µM on mouse TAAR1; 8 µM at hα1A adrenergic receptor. The Ki on hα2A adrenergic receptor is 1.7 µM; in assay [2] it was more than 6.3 µM; on hNET, more than 9.7 µM; on hDAT, more than 8.5 µM; at hSERT it was more than 7.5 µM. Also, at h5-HT2A receptor [1] (binding ratio), the “Selectivity 5-HT2A vs. 5-HT1A” value was 0.7. Also, the “Selectivity 5-HT2A vs. 5-HT2C” value on h5-HT2A receptor [1] (binding ratio) is listed as 0.8. Also, in the assay with humans (ref Trachsel 2012), the “Increase in human potency compared to mescaline (5)” value is listed as 4 fold. Also, the figures for the EC50 at human 5-HT2A receptor and at human 5-HT2B receptor were 1.5 µM and more than 10 µM, respectively. Also, the Emax at human 5-HT2A receptor was 85 to 94%.
